Two compounds from PMC5641094, “A peptide antagonist of Prep1-p160 interaction improves ceramide-induced insulin resistance in skeletal muscle cells” (Oncotarget, 2017) can be followed below.

For one assay, the system named is L6 cells. Nature of the assay: 2-DG uptake in L6 cells. It is filed as cell-based, rat. Particulars: for effect on insulin-stimulated glucose uptake (2-DG): insulin 100nM, C2cer 10μM, with or without Prep1(54-72). How it is done: Figure 6 Effect of Prep1(54-72) peptide on glycogen content and 2-DG uptake L6 control and Prep1 overexpressing cells were stimulated with Insulin (100nM) and/or C2cer (10μM) and incubated with Prep1(54-72). (A) Glycogen content and (B) 2-DG uptake were measured as described in methods. Bars represent the mean ± SD of three independent experiments. Asterisks denote statistically significant differences (*p<0.05; **p<0.01; ***p<0.001).
Glycogen was isolated from L6 cells homogenized in 0.1% SDS, saturated with Na2SO4 for 30 minutes at 37°C, followed by ethanol (EtOH) precipitation. Glycogen content was determined as previously described. 2-DG uptake by the L6 cells was measured as previously reported.

The target of a further assay is T1, Prep1/p160 complex (Rattus norvegicus, UniProt O35821).
T1 construct: endogenous in cells; host or cells: L6 rat skeletal muscle cells
T1 sequence (O35821 1-1344): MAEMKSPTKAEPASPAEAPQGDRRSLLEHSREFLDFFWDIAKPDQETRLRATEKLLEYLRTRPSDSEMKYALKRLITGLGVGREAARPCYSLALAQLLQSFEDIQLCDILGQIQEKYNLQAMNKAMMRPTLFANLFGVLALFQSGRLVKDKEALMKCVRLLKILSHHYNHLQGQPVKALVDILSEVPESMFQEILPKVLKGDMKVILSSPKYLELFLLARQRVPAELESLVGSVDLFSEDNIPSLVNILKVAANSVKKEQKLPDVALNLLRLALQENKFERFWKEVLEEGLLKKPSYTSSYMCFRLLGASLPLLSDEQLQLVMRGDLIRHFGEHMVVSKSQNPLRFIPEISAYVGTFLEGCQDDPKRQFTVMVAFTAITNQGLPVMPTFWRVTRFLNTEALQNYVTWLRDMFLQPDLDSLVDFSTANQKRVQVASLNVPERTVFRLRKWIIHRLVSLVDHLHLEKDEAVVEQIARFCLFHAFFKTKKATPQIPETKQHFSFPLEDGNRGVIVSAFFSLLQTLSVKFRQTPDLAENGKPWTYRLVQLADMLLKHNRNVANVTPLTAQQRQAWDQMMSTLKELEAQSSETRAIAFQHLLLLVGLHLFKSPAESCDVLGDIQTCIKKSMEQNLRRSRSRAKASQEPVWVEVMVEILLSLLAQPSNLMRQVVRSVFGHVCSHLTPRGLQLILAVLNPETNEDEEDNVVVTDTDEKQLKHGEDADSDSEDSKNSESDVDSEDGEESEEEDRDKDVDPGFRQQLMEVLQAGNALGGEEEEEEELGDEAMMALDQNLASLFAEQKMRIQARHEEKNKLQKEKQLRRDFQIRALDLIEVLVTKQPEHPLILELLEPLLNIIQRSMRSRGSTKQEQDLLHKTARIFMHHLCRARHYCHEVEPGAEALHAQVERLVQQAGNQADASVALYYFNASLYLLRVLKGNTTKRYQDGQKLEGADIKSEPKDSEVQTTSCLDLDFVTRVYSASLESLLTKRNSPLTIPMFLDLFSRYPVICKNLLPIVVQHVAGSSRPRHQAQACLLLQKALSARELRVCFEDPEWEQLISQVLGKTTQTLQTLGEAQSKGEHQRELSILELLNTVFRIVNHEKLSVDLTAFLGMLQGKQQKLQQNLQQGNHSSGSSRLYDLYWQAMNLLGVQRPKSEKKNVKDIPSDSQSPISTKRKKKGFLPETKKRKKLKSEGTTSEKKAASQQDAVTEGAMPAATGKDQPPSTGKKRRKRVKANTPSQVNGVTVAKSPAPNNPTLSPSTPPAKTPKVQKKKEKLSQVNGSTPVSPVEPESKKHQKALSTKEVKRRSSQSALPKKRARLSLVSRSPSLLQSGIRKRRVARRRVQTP
Nature of the assay: Prep1-p160 co-immunoprecipitation in L6 cells. It is filed as cell-based. How it is done: Figure 2 Effect of ceramides on Prep1 and p160 mRNA expression and of Prep1-p160 coprecipitation L6 cells were treated with C2cer (10μM) for 18h and Prep1 (A) or p160 (B) mRNA levels were analyzed by real-time RT-PCR analysis. Data were normalized by the amount of GAPDH mRNA, used as internal control. Bars represent the mean ± SD of three independent experiments, each performed in triplicate. (C) L6 cells were treated with cycloheximide (CHX) at 40μg/mL concentration for 18h and the lysates were analyzed by Western blot with anti-p160 and beta-actin. The autoradiograph shown is representative of three different experiments and subjected to densitometric analysis. […]
Figure 3 Design and in vitro effects of Prep1(54-72) peptide on Prep1/p160 association (A) Binding curves of Prep1(59-72) and Prep1(54-72) peptides to p160_20-160 by ELISA-like assays. […] (C) L6 cells were incubated with increasing concentrations of the fluorescein-conjugated peptide (FITC-Prep1(54-72)) and peptide uptake was detected by FACS analysis of fluorescein-labeled cells. […] Protein lysates were immunoprecipitated with Prep1 antibodies and analyzed by Western blot using antibodies for p160 or for Prep1. […] The blots were detected by ECL and autoradiography. […]
Total cell lysates were obtained and separated by SDS-PAGE. […] The protein concentrations in the cell lysates were measured using a Bio-Rad DC (detergent compatible) assay. […]

On to `CCCCCCCCCCCCC/C=C/[C@@H](O)[C@H](CO)NC(C)=O` [C2cer, D-erythro-Sphingosine, N-Acetyl-, reference compound], for which the “reduction of insulin-stimulated glucose uptake” value in the assay with L6 cells (C2cer exposure (abstract)) was 2.1 fold. Besides, in the assay with L6 cells, the “effect on insulin-stimulated glucose uptake (2-DG)” value is “negatively modulated”. Also, at Prep1/p160 complex (C2cer), the “induction of Prep1-p160 association” value is listed as 80%.

As to “Ac-KQAIYRHPLFPLLALLFEK-NH2 [Prep1(54-72)]”, in the assay on L6 cells, the “effect on insulin-stimulated glucose uptake (2-DG)” value is “recovered the insulin response”. Further, the “effect on ceramide-stimulated Prep1-p160 co-precipitation” value at Prep1/p160 complex (C2cer 10μM 18h, incubated with Prep1(54-72)) was “almost completely reverted”.
